Measurements reported in patent US20240374655A1, “INTESTINAL MICROBIOTA AND GVHD” (Memorial Sloan-Kettering Cancer Center, priority 2014, published 2024).
“Also recorded” adds a separate entry of the source.

Legend:
[1] = tested on: intestinal microbiota (Clostridiales, Enterococcus); test: Flora composition (16S rRNA sequencing of stool) after antibiotic treatment of healthy mice; format: in vivo, C57BL/6 mice
Experimental: (§1) FIGS. 16A-16J Imipenem treatment, compared to aztreonam treatment, suppresses anaerobic commensals and elevates GVHD severity in mice. (A) Flora composition analysis using 16S rRNA sequencing prior to and after treatment with the indicated antibiotics in healthy C57BL/6 mice. Mice were treated with subcutaneous (SC) injections of each antibiotic twice a day for two days (500 mg/kg for pip/tazo and 100 mg/kg for others) and stool samples were collected the following day. Values represent mean±SEM (n=3-4). *, P<0.05; **, P<0.01; ****, P<0.0001. Data are representative of two independent experiments. (B to J) Lethally irradiated 129S1 recipients were transplanted with MHC matched C57BL/6 T-cell depleted bone marrow (TCD-BM) cells and 1×10^6 C57BL/6 T cells. Control mice received TCD-BM only. Recipients were treated with imipenem or aztreonam (100 mg/kg, SC, 3 times a week from day 10 to day 24 following allo-HSCT). (B) Comparison of overall survival, with combined data from three independent experiments (n=15-43). ****, P<0.0001. (C) Mice with GVHD treated with antibiotics were sacrificed on day 21 and GVHD histology scores in target organs were quantified by a blinded pathologist. Data are combined from three independent experiments (n=5-20). *, P<0.05. (D) Stool samples obtained from mice treated with imipenem or aztreonam similarly to those in B were collected on day 21 and analyzed by 16S rRNA gene sequencing, followed by principal coordinate analysis of weighted and normalized UniFrac distances. (E and F) Differential taxonomic abundance between aztreonam treated and imipenem treated recipients was analyzed by (E) linear discriminate analysis coupled with effect size measurements (LEfSe) and (F) by LEfSe projected as a cladogram. Data are representative from more than five independent experiments in D to F. (G and H) Comparisons of bacterial abundance at the phylogenetic levels of (G) order, and (H) genus are shown. Data are combined from 6 independent experiments (n=32-36). ***, P<0.001. (I) Stool samples collected from mice with GVHD treated with antibiotics were collected on day 21, and evaluated by metagenomic shotgun sequence analysis, comparison of bacterial species abundance determined by taxonomy. Numbers 1 through 6 along the x-axis represent the individual subjects. (J) Principal component analysis of quantification of sequence reads from KEGG gene orthologs comparing samples from mice treated with aztreonam and imipenem.
To further explore causality and mechanisms of the effects of antibiotics with anaerobic activity on GVHD, we turned to experiments in mice. […] Mice were treated by subcutaneous (SC) injections of each antibiotic twice a day for two days (500 mg/kg for pip/tazo and 100 mg/kg for others) and stool samples were collected, followed by 16S rRNA gene amplification and sequence analysis.

Clostridiales = test: Change in Clostridiales abundance in paired stool samples of allo-HSCT patients before and after starting antibiotics; format: in vivo, human; conditions: before vs after starting the antibiotic; compared to aztreonam
Excerpt: (§2) (A) A retrospective cohort was identified of 283 adult patients who received non-T cell depleted allo-HSCT at our center from 1994 to 2013 and received antibiotics for neutropenic fever. Patients were stratified by exposure to antibiotics with significant activity against anaerobes. Outcomes indicated were depicted by Kaplan-Meier plots and curves compared by the logrank test. (B to G) Six representative clinical cases with time courses depicted of fecal microbiota composition and administration of antibiotic treatments during the course of allo-HSCT. […] (H) Change in abundance of Clostridiales in paired fecal samples from patients undergoing allo-HSCT collected prior to and following treatment with the indicated antibiotics.
For each stool specimen, DNA was purified using a phenol-chloroform extraction technique with mechanical disruption (bead-beating) based on a previously described protocol (60). Samples were analyzed using the 454 GS FLX Titanium platform to sequence the V1-V3 region of the bacterial 16S rRNA gene or were alternatively analyzed using the Illumina MiSeq platform to sequence the V4-V5 region of the 16S rRNA gene. Sequence data were compiled and processed using mothur version 1.34 (61), screened and filtered for quality (62). Operational taxonomic units (OTUs) were classified to the species level (63) using a modified form of the Greengenes reference database (64). Principal component analysis was performed upon a weighted and normalized Unifrac (65) distance matrix of OTU abundance in R software. Data from this study has been stored in the NCBI Sequence Read Archive (see url: www.ncbi.nlm.nih.gov/sra).
HSCT patients were on intestinal bacterial composition. In 2009, our center began to prospectively collect weekly stool samples from patients undergoing allo-HSCT. From this specimen bank, we identified paired stool samples collected from patients prior to as well as following initiation of specific antibiotics during the course of allo-HSCT. […]

[2] = Retrospective cohort of 283 allo-HSCT patients treated for neutropenic fever: GVHD-related mortality by antibiotic type; format: in vivo, human; conditions: compared to antibiotics with reduced activity against anaerobes (aztreonam, cefepime)
Excerpt: as §2
In one study, subjects analyzed retrospectively for impact of antibiotics on clinical outcomes consisted of 283 adult patients undergoing all-HSCT at Memorial Sloan Kettering Cancer Center (MSKCC) from 1994 to 2013. […]
GVHD was diagnosed clinically, confirmed pathologically by biopsy whenever possible, and classified according to historical consensus criteria as described previously (see Rowlings P A, Przepiorka D, Klein J P, et al. IBMTR Severity Index for grading acute graft-versus host disease: retrospective comparison with Glucksberg grade. Br J Haematol. 1997). […] Disease risk was determined according to the ASBMT RFI 2014 Disease Classification. […]

[3] = Administration of SCFA to mitigate murine GVHD (preliminary experiments); format: in vivo, mice; conditions: via drinking water (butyrate also via enema); data not shown
Experimental: Preliminary experiments were done to test the impact of administration of SCFA on murine GVHD. […] Sodium acetate (150 mM) will be delivered via the drinking water of mice beginning 2 weeks prior to BMT. Mice will then be irradiated and transplanted with continued supplementation of sodium acetate. Outcomes that will be evaluated in mice include GVHD clinical scores, survival, and day 14 and 28 tissue pathology. Kaplan-Meier curves will display the overall survival for the two groups. In addition, the area under the curve (AUC) will summarize the weekly total GVHD score from the time of infusion to week 13 for each mouse. Mice will be euthanized to evaluate for pathological evidence of GVHD, as well as to quantify and characterize large intestinal Tregs and alloreactive effector T cells by flow cytometry on days 14 and 28.

[4] = metronidazole added to ciprofloxacin; cited from earlier work
[5] = Antibiotic treatment in MHC-matched minor antigen-mismatched allo-HSCT GVHD model (C57BL/6 into 129S1); format: in vivo
Experimental: as §1, with “Data are representative from more than five independent experiments in D to F. (G and H) Comparisons of bacterial abundance at the phylogenetic levels of (G) order, and (H) genus are shown. Data are combined from 6 independent experiments (n=32-36). ***, P<0.001.” left out, “Numbers 1 through 6 along the x-axis represent the individual subjects.” left out
(A to G) Lethally irradiated 129S1 recipients were transplanted with C57BL/6 TCD-BM cells with 1×10^6 C57BL/6 T cells. […] (A) Colonic lamina propria-infiltrating leukocytes from recipients were analyzed on day 21 by flow cytometry. […] (C) Lamina propria-infiltrating leukocytes from the colon on day 21 were enriched for CD11b and CD11e simultaneously using a mixture of magnetic beads and IL-23 transcripts were quantified by real time PCR. […] (D) Immunofluorescent staining was used to quantify pSTAT3, CD3, and DAPI positive cells in colonic tissue collected on day 21. […]

[6] = 100 mg/kg SC twice a day for two days

**Q.** Which “Amplifiable bacterial DNA in stool” value ([1]; 500 mg/kg SC twice a day for two days) does the source give for piperacillin-tazobactam [pip/tazo] here?
**A.** no amplifiable bacterial DNA

**Q.** What about the “Change in Clostridiales abundance in stool of patients” value (Clostridiales) of the same molecule?
**A.** significantly lower abundances of Clostridiales; also recorded: more severe loss

**Q.** And the GVHD-related mortality [2]?
**A.** increased GVHD-related mortality

**Q.** With CC(=O)O [acetate] as the molecule, how does the “Benefit on murine GVHD” value [3] read?
**A.** notable benefit

**Q.** Which results are given for Cc1ncc([N+](=O)[O-])n1CCO [metronidazole]?
**A.** Abundance of Clostridiales in stool [1, 6]: significantly reduced; Abundance of Enterococcus in stool [1, 6]: increased; Acute GVHD [4]: significant reduction in acute GVHD; Change in Clostridiales abundance in stool of patients (Clostridiales): significantly lower abundances of Clostridiales

**Q.** Which results are given for C[C@@H](O)[C@H]1C(=O)N2C(C(=O)O)=C(SCCN=CN)C[C@H]12 [imipenem, imipenem-cilastatin]?
**A.** Mortality / overall survival ([5]; 100 mg/kg SC 3 times a week from day 10, compared to aztreonam, within 2 weeks of starting treatment): significantly increased mortality; also recorded: aggravated mortality; Bacteria past the colonic epithelial barrier ([5]; mouse, in vivo): dissemination of bacteria past the colonic epithelial barrier; GVHD pathology in skin, liver and small intestine ([5]; mouse, in vivo): no significant differences; GVHD-related mortality [2]: increased GVHD-related mortality
